Columns and labels:
Assay type in all cases: in vivo
kochia (Bassia scoparia) [1] = experiment: Test C preemergence, visual plant response rating
Excerpt: (§1) Seeds of plant species selected from barnyardgrass (Echinochloa crus-galli), kochia (Bassia scoparia), ragweed (common ragweed, Ambrosia artemisiifolia), Italian ryegrass (Lolium mutiflorum), foxtail, giant (giant foxtail, Setaria faberi), foxtail, green (green foxtail, Setaria viridis), and pigweed (Amaranthus retroflexus) were planted into a blend of loam soil and sand and treated preemergence with a directed soil spray using test chemicals formulated in anon-phytotoxic solvent mixture which included a surfactant.
(§2) At the same time, plants selected from these weed species and also wheat (Triticum aestivum), corn (Zea mays), blackgrass (Alopecurus myosuroides), and galium (catchweed bedstraw, Galium aparine) were planted in pots containing the same blend of loam soil and sand and treated with post emergence applications of test chemicals formulated in the same manner. Plants ranged in height from 2 to 10 cm and were in the one- to two-leaf stage for the postemergence treatment. Treated plants and untreated controls were maintained in a greenhouse for approximately 10 d, after which time all treated plants were compared to untreated controls and visually evaluated for injury. Plant response ratings, summarized in Table C, are based on a 0 to 100 scale where 0 is no effect and 100 is complete control. A dash (-)response means no test result.

[2] = tested on: pigweed (Amaranthus retroflexus); experiment: Test C preemergence, visual plant response rating
Excerpt: as §1, §2

[3] = tested on: foxtail, giant (giant foxtail, Setaria faberi); experiment: Test C preemergence, visual plant response rating
Excerpt: as §1, §2

[4] = tested on: Italian ryegrass (Lolium mutiflorum); experiment: Test C preemergence, visual plant response rating
Excerpt: as §1, §2

[5] = tested on: barnyardgrass (Echinochloa crus-galli); experiment: Test C preemergence, visual plant response rating
Excerpt: as §1, §2

[6] = tested on: galium (catchweed bedstraw, Galium aparine); experiment: Test C postemergence, visual plant response rating
Excerpt: as §1, §2

[7] = tested on: wheat (Triticum aestivum); experiment: Test C postemergence, visual plant response rating
Excerpt: as §1, §2

kochia (Bassia scoparia) [8] = experiment: Test C postemergence, visual plant response rating
Excerpt: as §1, §2

[9] = tested on: pigweed (Amaranthus retroflexus); experiment: Test C postemergence, visual plant response rating
Excerpt: as §1, §2

[10] = tested on: foxtail, giant (giant foxtail, Setaria faberi); experiment: Test C postemergence, visual plant response rating
Excerpt: as §1, §2

corn (Zea mays) = experiment: Test C postemergence, visual plant response rating
Excerpt: as §1, §2

[11] = tested on: Italian ryegrass (Lolium mutiflorum); experiment: Test C postemergence, visual plant response rating
Excerpt: as §1, §2

[12] = tested on: ragweed (common ragweed, Ambrosia artemisiifolia); experiment: Test C postemergence, visual plant response rating
Excerpt: as §1, §2

[13] = tested on: blackgrass (Alopecurus myosuroides); experiment: Test C postemergence, visual plant response rating
Excerpt: as §1, §2

[14] = tested on: barnyardgrass (Echinochloa crus-galli); experiment: Test C postemergence, visual plant response rating
Excerpt: as §1, §2

[15] = tested on: sedge umbrella (small-flower umbrella sedge, Cyperus difformis); experiment: Test D flooded paddy test, visual plant response rating; conditions: 250 g ai/ha, scale 0 to 100 (0 no effect, 100 complete control), 13 to 15 d
Description: (§3) Plant species in the flooded paddy test selected from rice (Oryza sativa), sedge umbrella (small-flower umbrella sedge, Cyperus difformis) duck salad (Heteranthera limosa), and barnyardgrass (Echinochloa crus-galli) were grown to the 2-leaf stage for testing. At time of treatment, test pots were flooded to 3 cm above the soil surface, treated by application of test compounds directly to the paddy water, and then maintained at that water depth for the duration of the test. Treated plants and controls were maintained in a greenhouse for 13 to 15 d, after which time all species were compared to controls and visually evaluated. Plant response ratings, summarized in Table D, are based on a scale of 0 to 100 where 0 is no effect and 100 is complete control. A dash (-) response means no test result.

[16] = tested on: duck salad (Heteranthera limosa); experiment: as above; conditions: 250 g ai/ha, scale 0 to 100 (0 no effect, 100 complete control), 13 to 15 d
Description: as §3

rice (Oryza sativa) = experiment: as above; conditions: 250 g ai/ha, scale 0 to 100 (0 no effect, 100 complete control), 13 to 15 d
Description: as §3

[17] = tested on: barnyardgrass (Echinochloa crus-galli); experiment: as above; conditions: 250 g ai/ha, scale 0 to 100 (0 no effect, 100 complete control), 13 to 15 d
Description: as §3

[18] = Test C, postemergence, 125 g ai/ha
[19] = Test C, postemergence, 500 g ai/ha
[20] = Test C, 31 g ai/ha, 0 is no effect, 100 is complete control

Row | Structure (SMILES) | Kochia plant response rating (0 to 100 scale) (kochia (Bassia scoparia) [1]; 125 g ai/ha) | Pigweed plant response rating (0 to 100 scale) ([2]; 125 g ai/ha) | Foxtail, Giant plant response rating (0 to 100 scale) ([3]; 125 g ai/ha) | Ryegrass, Italian plant response rating (0 to 100 scale) ([4]; 125 g ai/ha) | Barnyardgrass plant response rating (0 to 100 scale) ([5]; 125 g ai/ha) | Galium plant response rating (0 to 100 scale) [6, 18] | Wheat plant response rating (0 to 100 scale) [7, 18] | Kochia plant response rating (0 to 100 scale) (kochia (Bassia scoparia) [8]; [18]) | Pigweed plant response rating (0 to 100 scale) [9, 18] | Foxtail, Giant plant response rating (0 to 100 scale) [10, 18] | Corn plant response rating (0 to 100 scale) (corn (Zea mays); [18]) | Ryegrass, Italian plant response rating (0 to 100 scale) [11, 18] | Ragweed plant response rating (0 to 100 scale) [12, 18] | Blackgrass plant response rating (0 to 100 scale) [13, 18] | Barnyardgrass plant response rating (0 to 100 scale) [14, 18] | Plant response rating, Sedge, Umbrella (Flood) [15] | Plant response rating, Ducksalad (Flood) [16] | Plant response rating, Rice (Flood) (rice (Oryza sativa)) | Plant response rating, Barnyardgrass (Flood) [17] | Kochia plant response rating (0 to 100 scale) (kochia (Bassia scoparia) [1]; [20]) | other results
1 | C#CCON=C(c1c(O)c(OC)nn(C)c1=O)c1cccc2ccccc12 (mixture of isomers) [Compound 168] | 0 | 100 | 80 | 20 | 60 | 70 | 0 | 70 | 60 | 50 | 0 | 40 | 60 | 20 | 40 | 0 | 0 | 0 | 0 |  | Kochia plant response rating (0 to 100 scale) (kochia (Bassia scoparia) [1]; 500 g ai/ha): 10; Pigweed plant response rating (0 to 100 scale) ([2]; 500 g ai/ha): 100; Foxtail, Giant plant response rating (0 to 100 scale) ([3]; 500 g ai/ha): 100; Ryegrass, Italian plant response rating (0 to 100 scale) ([4]; 500 g ai/ha): 90; Barnyardgrass plant response rating (0 to 100 scale) ([5]; 500 g ai/ha): 80; Galium plant response rating (0 to 100 scale) [6, 19]: 90; Wheat plant response rating (0 to 100 scale) [7, 19]: 30; Kochia plant response rating (0 to 100 scale) (kochia (Bassia scoparia) [8]; [19]): 80; Pigweed plant response rating (0 to 100 scale) [9, 19]: 100; Foxtail, Giant plant response rating (0 to 100 scale) [10, 19]: 90; Corn plant response rating (0 to 100 scale) (corn (Zea mays); [19]): 20; Ryegrass, Italian plant response rating (0 to 100 scale) [11, 19]: 90; Ragweed plant response rating (0 to 100 scale) [12, 19]: 90; Blackgrass plant response rating (0 to 100 scale) [13, 19]: 80; Barnyardgrass plant response rating (0 to 100 scale) [14, 19]: 60
2 | CCON=C(c1cc(Cl)cc(Br)c1)c1c(O)c(C)nn(C)c1=O [Compound 180] | 100 | 80 | 100 | 100 | 80 | 100 | 50 | 90 | 70 | 90 | 20 | 100 | 100 | 30 | 60 | 65 | 60 | 0 | 40 | 0 | Pigweed plant response rating (0 to 100 scale) [2, 20]: 50; Foxtail, Giant plant response rating (0 to 100 scale) [3, 20]: 70; Ryegrass, Italian plant response rating (0 to 100 scale) [4, 20]: 40; Barnyardgrass plant response rating (0 to 100 scale) [5, 20]: 0; Galium plant response rating (0 to 100 scale) ([6]; Postemergence, 31 g ai/ha): 90; Wheat plant response rating (0 to 100 scale) ([7]; Postemergence, 31 g ai/ha): 30; Kochia plant response rating (0 to 100 scale) (kochia (Bassia scoparia) [8]; Postemergence, 31 g ai/ha): 80; Pigweed plant response rating (0 to 100 scale) ([9]; Postemergence, 31 g ai/ha): 10; Foxtail, Giant plant response rating (0 to 100 scale) ([10]; Postemergence, 31 g ai/ha): 70; Corn plant response rating (0 to 100 scale) (corn (Zea mays); Postemergence, 31 g ai/ha): 0; Ryegrass, Italian plant response rating (0 to 100 scale) ([11]; Postemergence, 31 g ai/ha): 70; Ragweed plant response rating (0 to 100 scale) ([12]; Postemergence, 31 g ai/ha): 100; Blackgrass plant response rating (0 to 100 scale) ([13]; Postemergence, 31 g ai/ha): 0; Barnyardgrass plant response rating (0 to 100 scale) ([14]; Postemergence, 31 g ai/ha): 30
3 | CCON=C(c1cc(Cl)cc(Br)c1)c1c(O)c(C)nn(C)c1=O [Compound 181] | 70 | 90 | 90 | 90 | 60 | 100 | 50 | 80 | 90 | 80 | 30 | 100 | 100 | 20 | 60 | 0 | 0 | 0 | 0 | 30 | Pigweed plant response rating (0 to 100 scale) [2, 20]: 30; Foxtail, Giant plant response rating (0 to 100 scale) [3, 20]: 50; Ryegrass, Italian plant response rating (0 to 100 scale) [4, 20]: 0; Barnyardgrass plant response rating (0 to 100 scale) [5, 20]: 0; Galium plant response rating (0 to 100 scale) ([6]; Postemergence, 31 g ai/ha): 100; Wheat plant response rating (0 to 100 scale) ([7]; Postemergence, 31 g ai/ha): 0; Kochia plant response rating (0 to 100 scale) (kochia (Bassia scoparia) [8]; Postemergence, 31 g ai/ha): 60; Pigweed plant response rating (0 to 100 scale) ([9]; Postemergence, 31 g ai/ha): 40; Foxtail, Giant plant response rating (0 to 100 scale) ([10]; Postemergence, 31 g ai/ha): 50; Corn plant response rating (0 to 100 scale) (corn (Zea mays); Postemergence, 31 g ai/ha): 0; Ryegrass, Italian plant response rating (0 to 100 scale) ([11]; Postemergence, 31 g ai/ha): 70; Ragweed plant response rating (0 to 100 scale) ([12]; Postemergence, 31 g ai/ha): 100; Blackgrass plant response rating (0 to 100 scale) ([13]; Postemergence, 31 g ai/ha): 0; Barnyardgrass plant response rating (0 to 100 scale) ([14]; Postemergence, 31 g ai/ha): 40
4 | Cc1nn(C)c(=O)c(C(=NOCC2CC2)c2cc(Cl)cc(Cl)c2Cl)c1O [Compound 182] | 0 | 70 | 100 | 100 | 90 | 100 | 70 | 70 | 50 | 90 | 30 | 100 | 100 | 10 | 60 | 0 | 0 | 0 | 0 | 0 | Pigweed plant response rating (0 to 100 scale) [2, 20]: 0; Foxtail, Giant plant response rating (0 to 100 scale) [3, 20]: 70; Ryegrass, Italian plant response rating (0 to 100 scale) [4, 20]: 30; Barnyardgrass plant response rating (0 to 100 scale) [5, 20]: 0; Galium plant response rating (0 to 100 scale) ([6]; Postemergence, 31 g ai/ha): 70; Wheat plant response rating (0 to 100 scale) ([7]; Postemergence, 31 g ai/ha): 0; Kochia plant response rating (0 to 100 scale) (kochia (Bassia scoparia) [8]; Postemergence, 31 g ai/ha): 10; Pigweed plant response rating (0 to 100 scale) ([9]; Postemergence, 31 g ai/ha): 10; Foxtail, Giant plant response rating (0 to 100 scale) ([10]; Postemergence, 31 g ai/ha): 70; Corn plant response rating (0 to 100 scale) (corn (Zea mays); Postemergence, 31 g ai/ha): 0; Ryegrass, Italian plant response rating (0 to 100 scale) ([11]; Postemergence, 31 g ai/ha): 70; Ragweed plant response rating (0 to 100 scale) ([12]; Postemergence, 31 g ai/ha): 40; Blackgrass plant response rating (0 to 100 scale) ([13]; Postemergence, 31 g ai/ha): 10; Barnyardgrass plant response rating (0 to 100 scale) ([14]; Postemergence, 31 g ai/ha): 50
